From PubChem BioAssay (NCI)
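All cell lines were grown in 96-well plates and treated with compound for 48 hours. TGI is the concentration that stops growth completely.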

Assays:
Experiment in all cases: growth of human tumour cells (NCI), 48 h
MCF7 breast = tested on: MCF7 breast
HCC-2998 colon = tested on: HCC-2998 colon
NCI-H23 lung = tested on: NCI-H23 lung
UACC-257 melanoma = tested on: UACC-257 melanoma
K-562 leukemia = tested on: K-562 leukemia
SR leukemia = tested on: SR leukemia
HL-60(TB) leukemia = tested on: HL-60(TB) leukemia
OVCAR-5 ovarian = tested on: OVCAR-5 ovarian
OVCAR-3 ovarian = tested on: OVCAR-3 ovarian
HT29 colon = tested on: HT29 colon
COLO 205 colon = tested on: COLO 205 colon
T-47D breast = tested on: T-47D breast
UACC-62 melanoma = tested on: UACC-62 melanoma
MOLT-4 leukemia = tested on: MOLT-4 leukemia
MDA-MB-435 = tested on: MDA-MB-435
HCT-15 colon = tested on: HCT-15 colon
SF-268 CNS = tested on: SF-268 CNS
SK-MEL-28 melanoma = tested on: SK-MEL-28 melanoma
CCRF-CEM leukemia = tested on: CCRF-CEM leukemia
SN12C renal = tested on: SN12C renal
MALME-3M melanoma = tested on: MALME-3M melanoma
A549 NSCLC = tested on: A549 NSCLC
NCI/ADR-RES ovarian = tested on: NCI/ADR-RES ovarian
SF-295 CNS = tested on: SF-295 CNS
HCT-116 colon = tested on: HCT-116 colon
UO-31 renal = tested on: UO-31 renal
786-0 renal = tested on: 786-0 renal
TK-10 renal = tested on: TK-10 renal
DU-145 prostate = tested on: DU-145 prostate
IGROV1 ovarian = tested on: IGROV1 ovarian
MDA-N = tested on: MDA-N
NCI-H460 lung = tested on: NCI-H460 lung
OVCAR-4 ovarian = tested on: OVCAR-4 ovarian
BT-549 breast = tested on: BT-549 breast
HS 578T breast = tested on: HS 578T breast
LOX IMVI melanoma = tested on: LOX IMVI melanoma
OVCAR-8 ovarian = tested on: OVCAR-8 ovarian
NCI-H522 lung = tested on: NCI-H522 lung
MDA-MB-231 breast = tested on: MDA-MB-231 breast
SF-539 CNS = tested on: SF-539 CNS
RPMI-8226 leukemia = tested on: RPMI-8226 leukemia
EKVX NSCLC = tested on: EKVX NSCLC
NCI-H226 lung = tested on: NCI-H226 lung
SK-MEL-5 melanoma = tested on: SK-MEL-5 melanoma
ACHN renal = tested on: ACHN renal
KM12 colon = tested on: KM12 colon
HOP-62 NSCLC = tested on: HOP-62 NSCLC
U251 CNS = tested on: U251 CNS
SNB-19 CNS = tested on: SNB-19 CNS
SW-620 colon = tested on: SW-620 colon
SK-MEL-2 melanoma = tested on: SK-MEL-2 melanoma
SNB-75 CNS = tested on: SNB-75 CNS
SK-OV-3 ovarian = tested on: SK-OV-3 ovarian
M14 melanoma = tested on: M14 melanoma
RXF 393 renal = tested on: RXF 393 renal
HOP-92 NSCLC = tested on: HOP-92 NSCLC
PC-3 prostate = tested on: PC-3 prostate

Measured: TGI

O=S(Nc1ccccc1)c1ccc(-c2ccccc2)cc1 (configuration not stated)
not listed: SK-MEL-2 melanoma | SNB-75 CNS | SK-OV-3 ovarian | M14 melanoma | RXF 393 renal | HOP-92 NSCLC | PC-3 prostate
> 100 µM: all other assays above

Cc1ccc(S(=O)(=O)NC(=O)NC(C(=O)O)C(C)O)cc1 (configuration not stated)
not listed: HCC-2998 colon | OVCAR-3 ovarian | MDA-MB-435 | EKVX NSCLC | NCI-H226 lung
> 100 µM: all other assays above
